Earlier results as cited in US20100112102A1, “THERAPEUTIC COMPOSITIONS FOR THE TREATMENT OF BENIGH PROSTATE HYPERPLASIA, PROSTATITIS, IMPOTENCE, INFERTILITY AND PROSTATE CANCER AND A METHOD FOR THE USE THEREOF” (priority 2007, published 2010).

Test system: 5α-reductase
Settings: one group of patients

Structure (SMILES): CC(C)(C)NC(=O)[C@H]1CC[C@H]2[C@@H]3CC[C@H]4NC(=O)C=C[C@]4(C)[C@H]3CC[C@]12C [Finasteride]
- J-PSS parameters, decrease on average: 20%
- maximal rate of urination, increase: 32.5%
- prostate size, decrease on average: 32%
